# Source: patent US20240400555A1 (Initial Therapeutics, Inc., priority 2023, published 2024)
# System: MV-4-11 cells
# Assay: Cell Viability Assay in MV-4-11 Cells
# Type: cell-based
# Conditions: Homo sapiens, MV4-11, 72 h, MV-4-11 cells, 72 h, Cell-Titer Glo; read-out: IC50
# Procedure, shortened: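 Luminescent ATP read-out (CellTiter-Glo) after 72 h compound treatment of MV-4-11 leukaemia cells (7,000 per well, IMDM plus 10% FBS). Values expressed relative to DMSO control and derived by four-parameter non-linear regression.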
row,Compound,IC50 [µM]
1,"Cc1cccc2ccnc(N(C(=O)c3ccc(-c4nnc(C5CC5)s4)cc3F)[C@@H]3CCCNC3)c12 [Example 836, (R)-4-(5-cyclopropyl-1,3,4-thiadiazol-2-yl)-2-fluoro-N-(8-methylisoquinolin-1-yl)-N-(piperidin-3-yl)benzamide]",0.089
2,"Cc1cn(-c2ccc(C(=O)N(c3nccc4scc(C)c34)[C@@H]3CCCNC3)c(F)c2)nn1 [Example 690, (R)-2-fluoro-4-(4-methyl-1H-1,2,3-triazol-1-yl)-N-(3-methylthieno[3,2-c]pyridin-4-yl)-N-(piperidin-3-yl)benzamide]",0.15
3,"CCc1nc(Nc2ccc(C(=O)N(c3nccc4cccc(C)c34)[C@@H]3CCCNC3)c(F)c2)ncc1F [Example 753, (R)-4-((4-ethyl-5-fluoropyrimidin-2-yl)amino)-2-fluoro-N-(8-methylisoquinolin-1-yl)-N-(piperidin-3-yl)benzamide]",0.17
4,"Cc1cccc2ccnc(N(C(=O)c3ccc(Nc4nccc(N(C)CCC#N)n4)cc3F)[C@@H]3CCCNC3)c12 [Example 949, (R)-4-((4-((2-cyanoethyl)(methyl)amino)pyrimidin-2-yl)amino)-2-fluoro-N-(8-methylisoquinolin-1-yl)-N-(piperidin-3-yl)benzamide]",0.25
5,"Cc1cccc2ccnc(N(C(=O)c3cccc(C#CCCC(=O)N4CCC(O)C4)c3)[C@@H]3CCCNC3)c12 (stereo partly drawn) [Example 518, 3-(5-(3-hydroxypyrrolidin-1-yl)-5-oxopent-1-yn-1-yl)-N-(8-methylisoquinolin-1-yl)-N—((R)-piperidin-3-yl)benzamide]",0.94
6,"COCCn1cc(-c2ccc(C(=O)N(c3nccc4scc(C)c34)[C@@H]3CCCNC3)c(F)c2)nn1 [Example 640, (R)-2-fluoro-4-(1-(2-methoxyethyl)-1H-1,2,3-triazol-4-yl)-N-(3-methylthieno[3,2-c]pyridin-4-yl)-N-(piperidin-3-yl)benzamide]",0.085
7,"Cc1nnc(-c2ccc(C(=O)N(c3nccc4c(Cl)ccc(C)c34)[C@@H]3CCCNC3)cn2)s1 [Example 898, N-(5-chloro-8-methyl-1-isoquinolyl)-6-(5-methyl-1,3,4-thiadiazol-2-yl)-N-[(3R)-3-piperidyl] pyridine-3-carboxamide]",0.12
8,"COc1cc(C)c2c(N(C(=O)c3ccc(-c4nnc(C)s4)cc3F)[C@@H]3CCCNC3)nccc2c1 [Example 860, 2-fluoro-N-(6-methoxy-8-methyl-1-isoquinolyl)-4-(5-methyl-1,3,4-thiadiazol-2-yl)-N-[(3R)-3-piperidyl]benzamide]",0.048
9,"COCCc1nnc(-c2ccc(C(=O)N(c3nccc4scc(C)c34)[C@@H]3CCCNC3)cn2)s1 [Example 913, 6-[5-(2-methoxyethyl)-1,3,4-thiadiazol-2-yl]-N-(3-methylthieno[3,2-c]pyridin-4-yl)-N-[(3R)-3-piperidyl]pyridine-3-carboxamide]",0.13
10,"Cc1cccc2ccnc(N(C(=O)c3ccc(Nc4nccc(N5CCOCC5)n4)cc3F)[C@@H]3CCCNC3)c12 [Example 408, (R)-2-fluoro-N-(8-methylisoquinolin-1-yl)-4-((4-morpholinopyrimidin-2-yl)amino)-N-(piperidin-3-yl)benzamide]",0.0053
11,"Cc1cc(F)cc2ccnc(N(C(=O)c3ccc(-n4nnc5cccnc54)cc3F)[C@@H]3CCCNC3)c12 [Example 583, (R)-4-(3H-[1,2,3]triazolo[4,5-b]pyridin-3-yl)-2-fluoro-N-(6-fluoro-8-methylisoquinolin-1-yl)-N-(piperidin-3-yl)benzamide]",0.0042
12,"Cn1cc(-c2ccc(C(=O)N(c3nccc4sc(C#CC(C)(C)O)cc34)[C@@H]3CCCNC3)c(F)c2)nn1 [Example 551, 2-fluoro-N-[2-(3-hydroxy-3-methyl-but-1-ynyl)thieno[3,2-c]pyridin-4-yl]-4-(1-methyltriazol-4-yl)-N-[(3R)-3-piperidyl]benzamide]",0.52
13,"CC(C)NC(=O)c1cccc(-c2cc3c(N(C(=O)c4ccc(-c5cn(C)nn5)cc4F)[C@@H]4CCCNC4)nccc3s2)c1 [Example 539, 2-fluoro-N-[2-[3-(isopropylcarbamoyl)phenyl]thieno[3,2-c]pyridin-4-yl]-4-(1-methyltriazol-4-yl)-N-[(3R)-3-piperidyl]benzamide]",0.63
14,"Cc1cccc2ccnc(N(C(=O)N3CCCC(N4C(=O)c5ccccc5C4=O)C3)[C@@H]3CCCNC3)c12 (stereo partly drawn) [Example 345, 3-(1,3-dioxoisoindolin-2-yl)-N-(8-methylisoquinolin-1-yl)-N—((R)-piperidin-3-yl)piperidine-1-carboxamide]",0.3
15,"Cc1nccc(N)c1-c1ccc(C(=O)N(c2nccc3cccc(C)c23)[C@@H]2CCCNC2)c(F)c1 [Example 361, (R)-4-(4-amino-2-methylpyridin-3-yl)-2-fluoro-N-(8-methylisoquinolin-1-yl)-N-(piperidin-3-yl)benzamide]",> 10
16,"Cc1nnc(-c2ccc3c(N(C(=O)c4ccc(-n5nnc6cccnc65)cc4F)[C@@H]4CCCNC4)nccc3c2)s1 [Example 576, (R)-4-(3H-[1,2,3]triazolo[4,5-b]pyridin-3-yl)-2-fluoro-N-(6-(5-methyl-1,3,4-thiadiazol-2-yl)isoquinolin-1-yl)-N-(piperidin-3-yl)benzamide]",0.43
17,"COCCN(C)c1ccnc(Nc2ccc(C(=O)N(c3nccc4cccc(C)c34)[C@@H]3CCCNC3)c(F)c2)n1 [Example 742, (R)-2-fluoro-4-((4-((2-methoxyethyl)(methyl)amino)pyrimidin-2-yl)amino)-N-(8-methylisoquinolin-1-yl)-N-(piperidin-3-yl)benzamide]",0.082
18,"Nc1nccc(-c2cc3c(N(C(=O)c4ccc(-n5nnc6cccnc65)cc4F)[C@@H]4CCCNC4)nccc3s2)n1 [Example 457, N-[2-(2-aminopyrimidin-4-yl)thieno[3,2-c]pyridin-4-yl]-2-fluoro-N-[(3R)-3-piperidyl]-4-(triazolo[4,5-b]pyridin-3-yl)benzamide]",0.29
19,"O=C(c1ccc(-n2nnc3cccnc32)cc1F)N(c1nccc2sc(-c3ccncn3)cc12)[C@@H]1CCCNC1 [Example 456, 2-fluoro-N-[(3R)-3-piperidyl]-N-(2-pyrimidin-4-ylthieno[3,2-c]pyridin-4-yl)-4-(triazolo[4,5-b]pyridin-3-yl)benzamide]",0.38
20,"Cc1cc(C)c2c(N(C(=O)c3ccc(-c4nnc(C)o4)nc3)[C@@H]3CCCNC3)nccc2c1 [Example 642, (R)—N-(6,8-dimethylisoquinolin-1-yl)-6-(5-methyl-1,3,4-oxadiazol-2-yl)-N-(piperidin-3-yl)nicotinamide]",0.16
21,"Cc1cccc2ccnc(N(C(=O)c3ccc(Nc4nccc(N5CCCC[C@H]5C)n4)cc3F)[C@@H]3CCCNC3)c12 [Example 959, 2-fluoro-N-(8-methylisoquinolin-1-yl)-4-({4-[(2R)-2-methylpiperidin-1-yl]pyrimidin-2-yl}amino)-N-[(3R)-piperidin-3-yl]benzamide]",0.19
22,"O=C(c1ccc(-n2nnc3cccnc32)cc1F)N(c1nccc2sc(-c3ccnc(C(F)(F)F)c3)cc12)[C@@H]1CCCNC1 [Example 462, 2-fluoro-N-[(3R)-3-piperidyl]-4-(triazolo[4,5-b]pyridin-3-yl)-N-[2-[2-(trifluoromethyl)-4-pyridyl]thieno[3,2-c]pyridin-4-yl]benzamide]",1
23,"Cc1cc2c(N(C(=O)c3ccc(-n4cnc5ccccc54)cc3F)[C@@H]3CCCNC3)nccc2s1 [Example 756, (R)-4-(1H-benzo[d]imidazol-1-yl)-2-fluoro-N-(2-methylthieno[3,2-c]pyridin-4-yl)-N-(piperidin-3-yl)benzamide]",> 6.3
24,"Cn1cc(-c2ccc(C(=O)N(c3nccc4sc(-c5ccc(CO)s5)cc34)[C@@H]3CCCNC3)c(F)c2)nn1 [Example 481, (R)-2-fluoro-N-(2-(5-(hydroxymethyl)thiophen-2-yl)thieno[3,2-c]pyridin-4-yl)-4-(1-methyl-1H-1,2,3-triazol-4-yl)-N-(piperidin-3-yl)benzamide]",0.27
25,"CC(C)NC(=O)c1ccc(-c2cc3c(N(C(=O)c4ccc(-c5cn(C)nn5)cc4F)[C@@H]4CCCNC4)nccc3s2)cc1 [Example 522, 2-fluoro-N-[2-[4-(isopropylcarbamoyl)phenyl]thieno[3,2-c]pyridin-4-yl]-4-(1-methyltriazol-4-yl)-N-[(3R)-3-piperidyl]benzamide]",0.77
26,"Cn1cc(-c2ccc(C(=O)N(c3nccc4cc(-c5ccnc(N)c5)ccc34)[C@@H]3CCCNC3)c(F)c2)nn1 [Example 491, (R)—N-(6-(2-aminopyridin-4-yl)isoquinolin-1-yl)-2-fluoro-4-(1-methyl-1H-1,2,3-triazol-4-yl)-N-(piperidin-3-yl)benzamide]",0.46
27,"Cc1ncc(-c2cc3c(N(C(=O)c4ccc(-c5cn(C)nn5)cc4F)[C@@H]4CCCNC4)nccc3s2)s1 [Example 483, (R)-2-fluoro-4-(1-methyl-1H-1,2,3-triazol-4-yl)-N-(2-(2-methylthiazol-5-yl)thieno[3,2-c]pyridin-4-yl)-N-(piperidin-3-yl)benzamide]",0.34
28,"COCc1nnc(-c2ccc(C(=O)N(c3nccc4cc(Cl)cc(C)c34)[C@@H]3CCCNC3)cn2)s1 [Example 895, N-(6-chloro-8-methyl-1-isoquinolyl)-6-[5-(methoxymethyl)-1,3,4-thiadiazol-2-yl]-N-[(3R)-3-piperidyl]pyridine-3-carboxamide]",0.053
29,"[2H]C([2H])([2H])n1cc(-c2ccc(C(=O)N(c3nccc4cc(Cl)cc(C)c34)[C@@H]3CCCNC3)c(F)c2)nn1 [Example 893, N-(6-chloro-8-methyl-1-isoquinolyl)-2-fluoro-N-[(3R)-3-piperidyl]-4-[1-(trideuteriomethyl)triazol-4-yl]benzamide]",0.04
30,"NC(=O)c1ccc(-c2cc3c(N(C(=O)c4ccc(-n5nnc6cccnc65)cc4F)[C@@H]4CCCNC4)nccc3s2)cc1C(F)(F)F [Example 573, 4-[4-[[2-fluoro-4-(triazolo [4,5-b]pyridin-3-yl)benzoyl]-[(3R)-3-piperidyl]amino]thieno [3,2-c]pyridin-2-yl]-2-(trifluoromethyl) benzamide]",0.23
